Active and inactive are the calls of the source. No cut-off for these calls is given here.
Experiments:
[1] = Antiproliferative activity against human PC3M cells after 48 hrs by SRB assay; assay type: functional, cell-based; settings: PC-3M
[2] = Antiproliferative activity against human HT-29 cells after 48 hrs by SRB assay; assay type: functional, cell-based; settings: HT-29, 48 h
[3] = Antiproliferative activity against human ES2 cells after 48 hrs by SRB assay; assay type: functional, cell-based; settings: ES-2, 48 h
[4] = Antiproliferative activity against HAF cells after 48 hrs by SRB assay; assay type: cell-based; settings: Homo sapiens
[5] = Selectivity index, ratio of IC50 for HAF cells to IC50 for human PC3M cells; assay type: functional
[6] = Selectivity index, ratio of IC50 for HAF cells to IC50 for human HT-29 cells; assay type: functional
[7] = Selectivity index, ratio of IC50 for HAF cells to IC50 for human ES2 cells; assay type: functional
[8] = Inhibition of colony formation in human PC3M cells at 5 uM after 7 days by crystal violet staining based assay; assay type: functional; settings: PC-3M, 168 h
[9] = system: PC-3M; test: Inhibition of colony formation in human PC3M cells at 10 uM after 7 days by crystal violet staining based assay; assay type: functional, cell-based
[10] = system: PC-3M; test: Inhibition of colony formation in human PC3M cells after 7 days by crystal violet staining based assay; assay type: functional, cell-based
[11] = system: PC-3M; test: Induction of apoptosis in human PC3M cells assessed as early apoptotic cells at 2.5 uM after 24 hrs by annexin V-FITC/propidium iodide staining based flow cytometry (reference value: 15.20%); assay type: functional
[12] = system: PC-3M; test: Induction of apoptosis in human PC3M cells assessed as late apoptotic cells at 2.5 uM after 24 hrs by annexin V-FITC/propidium iodide staining based flow cytometry (reference value: 0.97%); assay type: functional
[13] = system: PC-3M; test: Induction of apoptosis in human PC3M cells assessed as early apoptotic cells at 5 uM after 24 hrs by annexin V-FITC/propidium iodide staining based flow cytometry (reference value: 15.20%); assay type: functional
[14] = system: PC-3M; test: Induction of apoptosis in human PC3M cells assessed as late apoptotic cells at 5 uM after 24 hrs by annexin V-FITC/propidium iodide staining based flow cytometry (reference value: 0.97%); assay type: functional
[15] = system: PC-3M; test: Induction of apoptosis in human PC3M cells assessed as early apoptotic cells at 10 uM after 24 hrs by annexin V-FITC/propidium iodide staining based flow cytometry (reference value: 15.20%); assay type: functional
[16] = system: PC-3M; test: Induction of apoptosis in human PC3M cells assessed as late apoptotic cells at 10 uM after 24 hrs by annexin V-FITC/propidium iodide staining based flow cytometry (reference value: 0.97%); assay type: functional
[17] = system: PC-3M; test: Induction of apoptosis in human PC3M cells assessed as early apoptotic cells at 20 uM after 24 hrs by annexin V-FITC/propidium iodide staining based flow cytometry (reference value: 15.20%); assay type: functional
[18] = system: PC-3M; test: Induction of apoptosis in human PC3M cells assessed as late apoptotic cells at 20 uM after 24 hrs by annexin V-FITC/propidium iodide staining based flow cytometry (reference value: 0.97%); assay type: functional
[19] = system: PC-3M; test: Induction of apoptosis in human PC3M cells assessed as early apoptotic cells at 2.5 uM after 48 hrs by annexin V-FITC/propidium iodide staining based flow cytometry (reference value: 31.94%); assay type: functional
[20] = system: PC-3M; test: Induction of apoptosis in human PC3M cells assessed as late apoptotic cells at 2.5 uM after 48 hrs by annexin V-FITC/propidium iodide staining based flow cytometry (reference value: 0.32%); assay type: functional
[21] = system: PC-3M; test: Induction of apoptosis in human PC3M cells assessed as early apoptotic cells at 5 uM after 48 hrs by annexin V-FITC/propidium iodide staining based flow cytometry (reference value: 31.94%); assay type: functional
[22] = system: PC-3M; test: Induction of apoptosis in human PC3M cells assessed as late apoptotic cells at 5 uM after 48 hrs by annexin V-FITC/propidium iodide staining based flow cytometry (reference value: 0.32%); assay type: functional
[23] = system: PC-3M; test: Induction of apoptosis in human PC3M cells assessed as early apoptotic cells at 10 uM after 48 hrs by annexin V-FITC/propidium iodide staining based flow cytometry (reference value: 31.94%); assay type: functional
[24] = system: PC-3M; test: Induction of apoptosis in human PC3M cells assessed as late apoptotic cells at 10 uM after 48 hrs by annexin V-FITC/propidium iodide staining based flow cytometry (reference value: 0.32%); assay type: functional
[25] = system: PC-3M; test: Induction of apoptosis in human PC3M cells assessed as early apoptotic cells at 20 uM after 48 hrs by annexin V-FITC/propidium iodide staining based flow cytometry (reference value: 31.94%); assay type: functional
[26] = system: PC-3M; test: Induction of apoptosis in human PC3M cells assessed as late apoptotic cells at 20 uM after 48 hrs by annexin V-FITC/propidium iodide staining based flow cytometry (reference value: 0.32%); assay type: functional
[27] = Cell cycle arrest in human PC3M cells assessed as accumulation at G1 phase after 24 hrs by propidium iodide staining based flow cytometry; assay type: functional; settings: PC-3M
[28] = Cell cycle arrest in human PC3M cells assessed as accumulation at G1 phase at 5 uM after 24 hrs by propidium iodide staining based flow cytometry (reference value: 56.82%); assay type: functional; settings: PC-3M
[29] = Cell cycle arrest in human PC3M cells assessed as accumulation at G1 phase at 10 uM after 24 hrs by propidium iodide staining based flow cytometry (reference value: 56.82%); assay type: functional; settings: PC-3M
[30] = Cell cycle arrest in human PC3M cells assessed as accumulation at G1 phase at 20 uM after 24 hrs by propidium iodide staining based flow cytometry (reference value: 56.82%); assay type: functional; settings: PC-3M
[31] = Cell cycle arrest in human PC3M cells assessed as reduction in S phase at 2.5 to 20 uM after 24 hrs by propidium iodide staining based flow cytometry; assay type: functional; settings: PC-3M
[32] = Antimigratory activity against human PC3M cells at 2.5 uM after 12 hrs by crystal violet staining based transwell migration assay relative to control; assay type: functional, PC-3M
[33] = Antimigratory activity against human PC3M cells at 20 uM after 12 hrs by crystal violet staining based transwell migration assay; assay type: functional, PC-3M
[34] = system: PC-3M; test: Antimigratory activity against human PC3M cells after 12 hrs by crystal violet staining based transwell migration assay; assay type: functional, cell-based
[35] = Cell cycle arrest in human PC3M cells assessed as accumulation at G1 phase at 2.5 uM after 24 hrs by propidium iodide staining based flow cytometry (reference value: 56.82%); assay type: functional; settings: PC-3M

Work on `C=C(C)C1CC[C@H]2[C@@H]3CC[C@H]([C@H](C)CCC(=O)N4CCNCC4)[C@@]3(C)CC[C@@H]2[C@@]1(C)CCC(=O)N1CCNCC1` (stereo not given in full) yielded an IC50 [1] of 1.07 µM, an IC50 [2] of 4.58 µM and an IC50 [3] of 3.86 µM. For the same molecule, the IC50 [4] was 28.1 µM, the “Ratio IC50” value [5] was 26.3 and the “Ratio IC50” value [6] was 6.1. For the same molecule, the “Ratio IC50” value [7] was 7.3, the inhibition at 5 µM [8] was 70% and the inhibition [9] was “Active”. For the same molecule, the inhibition [10] was “Dose-dependent effect”, the Activity [11] was 15.36% and the Activity [12] was 0.61%. The Activity [13] was 13.78%, the Activity [14] was 0.87% and the Activity [15] was 14.66%. The Activity [16] was 0.6%, the Activity [17] was 14.5% and the Activity [18] was 0.9%. For the same molecule, the Activity [19] was 30.07%, the Activity [20] was 0.44% and the Activity [21] was 30.18%. For the same molecule, the Activity [22] was 0.48%, the Activity [23] was 29.52% and the Activity [24] was 0.79%. The Activity [25] was 22.72%, the Activity [26] was 1.31% and the Activity [27] was “Dose-dependent effect”. It also gave an Activity [28] of 66.3%, an Activity [29] of 69% and an Activity [30] of 79%. For the same molecule, the Activity [31] was “Active”, the Activity [32] was 50% and the Activity [33] was 100%. For the same molecule, the Activity [34] was “Dose-dependent effect” and the Activity [35] was 58.4%.
